Measured values published in the supplement of paper PMC10307832.

Experiments:
Assay in all cases: relative viability (nuclei count vs DMSO), 5 days (fraction); higher = more cells survive
[1] = compound: C1=CC=C(C(=C1)C2=CC=C(C=C2)C3=CSC4=C3C(=C(C(=O)N4)C#N)O)O + COc1cc2c(Oc3ccc(NC(=O)C4(C(=O)Nc5ccc(F)cc5)CC4)cc3F)ccnc2cc1OCCCN1CCOCC1 [Foretinib] (partner 0.25 µM)
Summary of the method: (§1)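 Lung cancer cell lines were seeded in 1536-well plates and dosed by pin tool the next day, with either a single drug or a fixed anchor-drug dose combined with five library-drug doses (not always all listed) spaced in √10 steps. Five days later, one step fixed the cells and stained their nuclei (final 0.05% Triton X-100, 1% formaldehyde, 1 ug/ml Hoechst), and nuclei were counted on 4× images. Relative viability is the nuclei count in treated wells divided by the count in vehicle wells, and each value is the median of duplicate plates.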

[2] = compound: C1=CC=C(C(=C1)C2=CC=C(C=C2)C3=CSC4=C3C(=C(C(=O)N4)C#N)O)O + CS(=O)(=O)CCNCc1ccc(-c2ccc3ncnc(Nc4ccc(OCc5cccc(F)c5)c(Cl)c4)c3c2)o1 [Lapatinib] (partner 2 µM)
Summary of the method: as §1

TGX 221 + Tozasertib = compound: CC1=CN2C(=O)C=C(N=C2C(=C1)C(C)NC3=CC=CC=C3)N4CCOCC4 [TGX 221] + Cc1cc(Nc2cc(N3CCN(C)CC3)nc(Sc3ccc(NC(=O)C4CC4)cc3)n2)n[nH]1 [Tozasertib] (partner 0.1 µM)
Summary of the method: as §1

TGX 221 + Decitabine = compound: CC1=CN2C(=O)C=C(N=C2C(=C1)C(C)NC3=CC=CC=C3)N4CCOCC4 [TGX 221] + Nc1ncn([C@H]2C[C@H](O)[C@@H](CO)O2)c(=O)n1 [Decitabine] (partner 2 µM)
Summary of the method: as §1

Row | Cell Line | relative viability ([1]; first compound 0.08 µM) | relative viability ([1]; first compound 0.253 µM) | relative viability ([1]; first compound 0.8 µM) | relative viability ([1]; first compound 2.53 µM) | relative viability ([1]; first compound 8 µM) | relative viability ([2]; first compound 0.08 µM) | relative viability ([2]; first compound 0.253 µM) | relative viability ([2]; first compound 0.8 µM) | relative viability ([2]; first compound 2.53 µM) | relative viability ([2]; first compound 8 µM) | relative viability (TGX 221 + Tozasertib; first compound 0.08 µM) | relative viability (TGX 221 + Tozasertib; first compound 0.253 µM) | relative viability (TGX 221 + Tozasertib; first compound 0.8 µM) | relative viability (TGX 221 + Tozasertib; first compound 2.53 µM) | relative viability (TGX 221 + Tozasertib; first compound 8 µM) | relative viability (TGX 221 + Decitabine; first compound 0.08 µM) | relative viability (TGX 221 + Decitabine; first compound 0.253 µM) | relative viability (TGX 221 + Decitabine; first compound 0.8 µM) | relative viability (TGX 221 + Decitabine; first compound 2.53 µM) | relative viability (TGX 221 + Decitabine; first compound 8 µM)
1 | COR-L 105 | 1.24 | 1.33 | 0.997 | 0.943 | 0.994 | 0.4 | 0.353 | 0.34 | 0.344 | 0.345 | 0.412 | 0.418 | 0.309 | 0.395 | 0.323 | 0.651 | 0.609 | 0.628 | 0.649 | 0.596
2 | NCI-H596 | 1.01 | 0.783 | 0.79 | 1.03 | 0.824 | 0.866 | 1.17 | 1.16 | 0.999 | 1.02 | 0.94 | 0.944 | 0.91 | 0.864 | 0.61 | 0.987 | 1.16 | 1.14 | 1.08 | 0.963
3 | LK-2 | – | 1.01 | 1.37 | 1.3 | 1.7 | – | 0.884 | 0.932 | 1.05 | 0.696 | 0.203 | 0.202 | 0.182 | 0.187 | 0.161 | 0.341 | 0.308 | 0.25 | 0.296 | 0.307
4 | NCI-H650 | 1.11 | 1.07 | 0.952 | 1.04 | 1.05 | 0.625 | 1.09 | 0.742 | 1.09 | 0.763 | 0.665 | 0.639 | 0.665 | 0.712 | 0.596 | 0.326 | 0.301 | 0.318 | 0.343 | 0.343
5 | NCI-H520 | 0.515 | 0.711 | 0.835 | 0.848 | 0.627 | 0.602 | 0.876 | 1.15 | 0.859 | 0.736 | 0.469 | 0.385 | 0.382 | 0.304 | 0.303 | 0.449 | 0.428 | 0.306 | 0.341 | 0.335
6 | ABC-1 | 1 | 1.13 | 1.05 | 0.951 | 1.09 | 1.52 | 1.49 | 1.42 | 1.13 | 0.997 | 0.192 | 0.157 | 0.203 | 0.188 | 0.161 | 1.06 | 1.26 | 1 | 1.07 | 0.923
7 | NCI-H322M | 1.01 | 1.02 | 0.935 | 1.02 | 0.954 | 0.621 | 0.616 | 0.569 | 0.563 | 0.589 | 0.513 | 0.468 | 0.446 | 0.442 | 0.44 | 0.628 | 0.683 | 0.693 | 0.62 | 0.678
8 | HCC-78 | 0.649 | 0.629 | 0.579 | 0.498 | 0.52 | 0.575 | 0.935 | 0.899 | 0.781 | 0.809 | 0.344 | 0.432 | 0.371 | 0.268 | 0.347 | 0.589 | 0.736 | 0.699 | 0.693 | 0.68
9 | NCI-H1395 | 0.867 | 0.964 | 0.991 | 1.01 | 1 | – | 0.87 | 1.05 | 0.974 | 0.965 | 0.712 | 0.697 | 0.713 | 0.603 | 0.569 | 0.712 | 0.685 | 0.662 | 0.615 | 0.614
10 | NCI-H2009 | 1.18 | 1.24 | 1.3 | 1.28 | 1.19 | 1.04 | 0.933 | 0.795 | 0.886 | 0.724 | 0.739 | 0.714 | 0.73 | 0.631 | 0.436 | 0.384 | 0.339 | 0.352 | 0.471 | 0.327
11 | LXF-289 | 0.999 | 0.959 | 0.993 | 1.05 | 1.04 | 0.89 | 0.895 | 0.917 | 0.908 | 0.924 | 0.215 | 0.235 | 0.201 | 0.202 | 0.114 | 0.37 | 0.371 | 0.369 | 0.348 | 0.375
12 | NCI-H1975 | 0.889 | 0.822 | 0.967 | 1 | 0.84 | 0.756 | 1.01 | 0.832 | 0.895 | 0.766 | 0.759 | 0.685 | 0.761 | 0.569 | 0.382 | 0.542 | 0.386 | 0.385 | 0.362 | 0.39
13 | NCI-H2347 | 0.845 | 0.923 | 0.951 | 1.01 | 0.735 | 0.844 | 1.17 | 0.889 | 0.916 | 0.932 | 0.514 | 0.418 | 0.538 | 0.422 | 0.33 | 0.564 | 0.504 | 0.582 | 0.558 | 0.597
14 | RERF-LC-KJ | 0.917 | 0.996 | 0.902 | 0.914 | 0.778 | 0.787 | 0.883 | 0.884 | 0.833 | 0.848 | 0.465 | 0.555 | 0.496 | 0.488 | 0.382 | 0.632 | 0.75 | 0.762 | 0.692 | 0.678
15 | BEN | 0.503 | 0.611 | 0.668 | 0.646 | 0.634 | 0.577 | 0.663 | 0.716 | 0.87 | 0.645 | 0.51 | 0.505 | 0.489 | 0.473 | 0.496 | 0.679 | 0.669 | 0.667 | 0.715 | 0.715
16 | NCI-H358 | 0.672 | 0.558 | 0.697 | 0.624 | 0.53 | 0.431 | 0.473 | 0.549 | 0.49 | 0.41 | 0.097 | 0.0915 | 0.103 | 0.108 | 0.0944 | 0.22 | 0.216 | 0.209 | 0.181 | 0.203
